The source of these data is PMC10112232, “Comparison of Toxicities among Different Bumped Kinase Inhibitor Analogs for Treatment of Cryptosporidiosis” (Antimicrobial Agents and Chemotherapy, 2023).

Where two headings read alike, the source gives them in different places.

A short description of series [1]: Pharmacokinetics in mice (plasma, brain, GI tissues) by LC/MS-MS. Type of series: in vivo, mouse. As to conditions: for Kp: mouse, brain, read-out: brain penetration (brain tissue to plasma area-under-the-curve). On the procedure:
For evaluation of its suitability for in vivo dosing, BKI-1841 was also tested in mice for plasma exposure after a single dose (Fig. 2). […] A dose of 25 mg/kg BKI-1841 was used to evaluate brain penetration over 4 h using the same method (Fig. 2).
(§1) Methods for synthesis of BKIs ([17], [23]), efficacy against Nluc expressing C. parvum in infected adult IFN-γ KO mice ([6], [9]), in vivo mouse GI tract tissue exposure by LC/MS-MS analysis ([18], [28]), PK analysis of mouse plasma and brain tissue BKI concentrations by LC/MS-MS analysis ([29]), in vivo rat and dog cardiotoxicity screen ([30]), efficacy against IOWA-II strain C. parvum in infected neonatal calves ([13]), efficacy against C. hominis in infected piglets ([12]), in vitro inhibition of C. parvum CDPK1 (CpCDPK1) and human tyrosine kinase SRC (HsSRC) activity ([31]), in vitro inhibition of hERG ([32]), Nluc expressing C. parvum in vitro growth inhibition in infected HCT-8 cells ([6]), in vitro cytotoxicity in CRL-8155 and HepG2 cells ([29]), and mouse locomotor activity box ([33], [34]) have all been previously described. Analytes were measured by LC/MS-MS on an Acquity ultra performance liquid chromatography (UPLC) system in tandem with a Xevo TQ-S mass spectrometer (Waters, Milford, MA, USA).

For a further series, the system named is C. parvum. Put plainly: Efficacy in neonatal calves infected with C. parvum. Type of series: in vivo. On the procedure:
(§2) There were also improvements in the treated calves in both fecal volume and consistency, urine output, weight gain and daily clinical scores compared to control calves (Fig. S3). […] Fecal volume, fecal consistency, and clinical scores were improved for all treatment groups compared to controls, but these improvements were delayed for the 1 mg/kg group.
Total oocyst excretion determined by RT-PCR concentration and total by fecal weight shed per day. (A) Oocyst excretion per day after treatment with BKI-1770. […] (C) Oocyst excretion per day after treatment with BKI-1841. (D) Cumulative total oocyst excretion for days 3 through 10 after treatment with BKI-1841. […] BKI-1841 BID treatments were administered on days 2 through 4 and QD treatments were administered on days 2 through 5. […] QD = once daily, BID = twice daily.
(§3) BKI-1841 was dosed at 5, 2, and 1 mg/kg BID for 3 days and 2 mg/kg QD for 4 days (Fig. 5, Fig. S4). […] Urine output was consistent for all groups, including controls, and fecal volume and consistency were improved for all groups over controls (Fig. S4). […] This occurred to some degree with all dosing regimens, developing with the fewest doses at 5 mg/kg BID. With the lowest dose of 1 mg/kg BID, the onset of dropped pasterns began after the third dose and continued until self-resolving 2 days after dosing concluded. All signs of dropped pasterns were gone by the end of the experiment on day 10 postinfection.
as §1

Series [2] can be described thus: Plasma concentrations and clinical toxicity signs in treated neonatal calves. Type of series: in vivo, calf. As to conditions: for Cmax: bovine, plasma. On the procedure:
as §2, §3

Series [3] is described as follows: Multidose mouse toxicity, tibial epiphyseal growth plate. It is filed as in vivo. Conditions: for gross signs of toxicity / width of the tibia epiphyseal growth plate vs vehicle controls: 3 week old mice, oral 150 mg/kg QD for 7 days; for width of the tibia epiphyseal growth plate vs vehicle controls: n = 3. On the procedure: The recurring presence of toxicity in calves manifesting as dropped pasterns, as well as the observations of bone toxicity in rats, led to the exploration of possible bone toxicity screening in mice to allow for screening prior to dosing in larger animals. To test for effects to the growth plate in developing bones, 3 week old mice were dosed for 7 days QD and euthanized 24 h after the final dose. The right and left tibia were dissected from each mouse and stained with AgNO3 to visualize the growth plate and measurements across the widths compared to vehicle-only treated controls. […] The remaining two mice for this treatment were immediately euthanized and their tibias extracted early on day 4.
Mouse toxicity testing and evaluation of the tibial epiphyseal plate have been previously described ([18], [38]) and were performed with some modifications. Briefly, 3 week old BALB/c mice (n = 3) were dosed orally once daily for 7 days. Mice were euthanized along with vehicle treated controls by cardiac puncture for collection of blood for analysis. Necropsy, obtaining blood for serum chemistries, histology of organs (brain, heart, lungs, spleen, liver, stomach, small intestine, large intestine and kidney), and removal of tibias were performed within 24 h of the final dose. Examination of organ histology included routine H&E and Oil-Red O (lipid)-stained organs from the treated mice and a set of untreated matched controls. Pathological examination was performed by a board certified pathologist who was blinded to the treatment and control group identities. Tibias were removed and immediately placed in dH2O for a minimum of 1 h. Using a fresh number 11 scalpel blade, a quick sagittal cut was made across the femoral condyle opposite the fibula, and a second cut was made across the second femoral condyle separating the fibula and tibia. The tibias were then immersed in acetone for 1 h to dehydrate. Dehydrated tibias were washed in dH2O for 2 min, then soaked in 1.5% AgNO3 for 1 min in a container protected from light. Tibias were then rinsed in dH2O for 2 min and exposed to strong light for 10 sec. Stained tibias were stored in 70% ethanol for >10 min before examining the growth plates at ×40 magnification using an Amscope stereo microscope with a mounted camera. Photos were taken using the Amscope image capture software. A calibration slide was used to establish a μm to pixel ratio of 1:1.184. Using the Measurement Tool, 10 measurements were taken across each epiphyseal plate by orienting the cursor at right angles from the growth plate borders by two different researchers (one set unblinded; one set blinded) and average width was assigned to each tibia from each animal.

A short description of series [4]: Mouse locomotor activity box. Conditions: mice, 150 mg/kg QD for 5 days; for distance traveled / stereotypic horizontal activity / vertical rearing activity: vs controls. It is filed as in vivo. On the procedure: BKIs –1770, -1841, and -1708 were tested in the mouse locomotor activity box to screen for possible neurological issues (Fig. S7). All three BKIs were dosed at 150 mg/kg QD for 5 days.
as §1

In series [5] the test system is Nluc expressing C. parvum. Set-up: method as in PMID 30830766. As to conditions: cited from earlier work.
In series [6] the target is human tyrosine kinase SRC (HsSRC) (Homo sapiens, UniProt P12931). Set-up: method as in PMID 30830766. As to conditions: read-out: HsSR IC50; cited from earlier work.
Sequence of human tyrosine kinase SRC (HsSRC) (P12931 whole entry): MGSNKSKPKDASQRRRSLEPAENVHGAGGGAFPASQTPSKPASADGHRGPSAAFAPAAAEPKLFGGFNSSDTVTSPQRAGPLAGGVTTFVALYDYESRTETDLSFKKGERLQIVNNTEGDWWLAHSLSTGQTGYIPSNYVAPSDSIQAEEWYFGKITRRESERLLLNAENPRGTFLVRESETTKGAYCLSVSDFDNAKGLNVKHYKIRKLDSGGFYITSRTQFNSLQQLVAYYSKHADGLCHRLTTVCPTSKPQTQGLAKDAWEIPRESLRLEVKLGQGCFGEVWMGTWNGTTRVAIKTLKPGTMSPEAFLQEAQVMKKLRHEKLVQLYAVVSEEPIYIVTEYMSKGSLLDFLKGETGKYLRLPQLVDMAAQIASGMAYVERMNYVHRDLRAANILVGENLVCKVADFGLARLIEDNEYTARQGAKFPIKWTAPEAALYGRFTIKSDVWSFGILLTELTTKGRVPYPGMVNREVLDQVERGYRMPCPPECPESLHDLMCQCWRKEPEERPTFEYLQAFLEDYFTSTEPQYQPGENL
The nature of series [7]: In vitro cytotoxicity in HepG2 cells. It is filed as cell-based. Conditions: human.
Description: as §1

The nature of series [8]: In vitro cytotoxicity in CRL-8155 cells. Conditions: human. Type of series: cell-based.
Description: as §1

What is called EC50 is the concentration at which the effect is half-maximal. The IC50 is the concentration that inhibits the measured activity by half. Consider `CCOc1ccc2cc(-c3nn(C(C)(C)CCO)c(N)c3C(N)=O)ccc2c1` [BKI-1770], for which the “time to depletion in plasma to submicromolar concentrations” value in [1] (mice, after oral dosing) lay in the range of 1 to 2 h. The ileum tissue concentration in series [1] (mice, single 30 mg/kg oral dose, through 12 h) was > 1 µM. In [1] (mice, single 30 mg/kg oral dose), the Kp stood at 0.1. This compound also returned a total oocysts excreted in the series on C. parvum (5 mg/kg BID for 5 days (n = 5), days 3 to 10 postinfection, control 1.62E10) of 2.58E9 oocysts. The compound also yielded a minimal efficacious dose with C. parvum (BID) of 3 mg/kg. Further, the “total oocyst excretion per day vs controls” value with C. parvum (all dosed groups (5, 3, 2, 1 mg/kg BID for 5 days)) is recorded as “significant differences”. Also, in series [2] (5 mg/kg BID for 5 days), the “hyperflexion of the limbs (dropped pasterns)” value was “observed in two of the 5 mg/kg calves”. The bloody diarrhea result in series [2] (5 mg/kg BID, one calf) is “some bloody diarrhea”. The Cmax in [2] (3 mg/kg BID, at 4 h post dose 1, read-out: plasma observed Cmax) was 3.4 ± 0.06 µM. Moreover, the Cmax in series [2] (5 mg/kg BID, at 4 h post dose 5, read-out: plasma observed maximum concentration (Cmax)) was 10.3 ± 5.4 µM. Besides, in series [3], the “gross signs of toxicity” value is on record as “no gross signs of toxicity” and the “width of the tibia epiphyseal growth plate vs vehicle controls” value was “significant (P < 0.05) increases”. In [4], the “overall effect on locomotor activity” value was “depression in movement”, the distance traveled result is “significant (P < 0.05) decrease in distance traveled from 20 to 60 min”, the stereotypic horizontal activity result is reported as “increased horizontal activity from 0 to 40 min” and the vertical rearing activity entry was “decreased vertical activity throughout the study”. The EC50 in series [5] is 500 nM. Also, in [6], the IC50 was > 10 µM.

For orientation: CC50 means the concentration that lowers cell viability or growth by half. For the compound `CCOc1ccc2cc(-c3nn(C4CCOCC4)c(N)c3C(N)=O)ccc2n1` [BKI-1841], the CC50 in series [7] is > 80 µM. Besides, in series [8], the CC50 is > 80 µM. Moreover, in series [1] (for more than 6 h after a single 25 mg/kg dose in mice), the plasma exposure was > 1 µM. The signs of toxicity result in [1] (mice, single 25 mg/kg dose) was “no signs of toxicity”. In addition, the Kp in [1] (mice, single 25 mg/kg oral dose, over 4 h) turned out to be 0.27. Also, in the series with C. parvum (1 mg/kg BID for 3 days), the “total oocyst excretion reduction” value is “little reduction”. The “total oocyst excretion per day vs controls” value in the series on C. parvum (1 mg/kg group) is given as “no significant difference”. Moreover, in the series with C. parvum (5 mg/kg BID for 3 days and 2 mg/kg BID given for 3 or 4 days), the “total oocyst excretion reduction” value fell in the range of 2 to 4 log. Further, in the series with C. parvum (5 mg/kg and both 2 mg/kg groups), the “total oocyst excretion per day vs controls” value was “significant differences”. In series [2] (1 mg/kg BID, last day of treatment), this compound came in with a predose plasma concentration of 1.3 ± 0.1 µM. In addition, in [2] (5 mg/kg BID, during the 3 days of dosing), the ataxia entry is “signs of ataxia”. For the same compound, the “hyperflexion of the limbs (dropped pasterns)” value in series [2] (all dosing regimens (5, 2, 1 mg/kg BID 3 days; 2 mg/kg QD 4 days)) was “all calves dosed with BKI-1841 showed signs of hyperflexion of the limbs seen as dropped pasterns”. Moreover, the safety index in [2] (dropped pasterns at lowest dose tested (1 mg/kg BID)) was < 1. Besides, in series [3], the “gross signs of toxicity” value is “no gross signs of toxicity” and the “width of the tibia epiphyseal growth plate vs vehicle controls” value is “did not show significant increases”. Moreover, the “blood chemistry and histology vs control animals” value in [3] (mice (data not shown)) was “no abnormalities or indications of toxicity”. Further, in [4], the “overall effect on locomotor activity” value is recorded as “depression in movement”, the distance traveled result is reported as “significant (P < 0.05) decrease”, the stereotypic horizontal activity entry was “significant (P < 0.05) decrease” and the vertical rearing activity result was “significant (P < 0.05) decrease”.
